In US8080547B2, “Triazolopyridine carboxamide derivatives and triazolopyrimidine carboxamide derivatives, preparation thereof and therapeutic use thereof” (Sanofi-Aventis, priority 2007, dated 2011) one finds melting point and IC50 data, which are given here for four molecules.

The target in data set [1] is T1, FAAH (Fatty Acid Amide Hydrolase) enzyme (Mus musculus, UniProt O08914).
T1 construct: the source of FAAH enzyme is a mouse brain homogenate from which the cerebellum and the medulla oblongata have been removed; from tissue; host or cells: mouse brain homogenate (cerebellum and medulla oblongata removed)
T1 sequence (O08914 1-579): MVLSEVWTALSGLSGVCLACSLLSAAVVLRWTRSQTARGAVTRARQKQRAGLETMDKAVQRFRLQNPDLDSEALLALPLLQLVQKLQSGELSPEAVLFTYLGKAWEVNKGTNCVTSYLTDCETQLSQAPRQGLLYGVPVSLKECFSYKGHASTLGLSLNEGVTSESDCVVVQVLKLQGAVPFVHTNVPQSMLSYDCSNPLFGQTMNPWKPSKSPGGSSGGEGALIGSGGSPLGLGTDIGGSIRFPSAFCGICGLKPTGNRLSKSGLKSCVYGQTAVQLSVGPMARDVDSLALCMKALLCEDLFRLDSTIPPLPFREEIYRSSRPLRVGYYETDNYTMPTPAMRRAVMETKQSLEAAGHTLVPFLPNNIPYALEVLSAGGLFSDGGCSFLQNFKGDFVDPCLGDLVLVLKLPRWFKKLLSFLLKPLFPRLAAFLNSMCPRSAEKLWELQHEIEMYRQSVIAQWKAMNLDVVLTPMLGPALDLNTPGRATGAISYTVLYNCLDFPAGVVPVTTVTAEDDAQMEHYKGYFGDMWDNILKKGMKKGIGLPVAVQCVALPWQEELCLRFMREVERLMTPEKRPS
The data set is described as follows: radioenzymatic assay of [3H]anandamide hydrolysis by FAAH. The format is biochemical. The conditions noted are these: mouse brain homogenate; 20 min preincubation; 10 μM anandamide; read-out: IC50 (concentration which inhibits 50% of the control enzyme activity of FAAH). As to the method: Tests comprised measuring the activity, in vitro, of the compounds of the invention on the FAAH enzyme.
The inhibitory activity was measured in a radioenzymatic assay based on measuring the product of hydrolysis (ethanolamine [1-3H]) of anandamide by FAAH (Life Science (1995), 56, 1999-2005 and Journal of Pharmacology and Experimented Therapeutics (1997), 283, 729-734). The products of hydrolysis of [^3H]anandamide, labeled on ethanolamine, are arachidonic acid and [^3H]ethanolamine and the source of FAAH enzyme is a mouse brain homogenate from which the cerebellum and the medulla oblongata have been removed. The mouse brains are removed, and stored at −80° C. until they are used or homogenized immediately for twice 5 seconds using a Precellys apparatus at 5000 rpm (Bertin) in a 10 mM Tris-HCl, 150 mM NaCl, 1 mM EDTA buffer (pH 8) at 4° C. The concentration of the homogenates is then adjusted to 20 μg/μl.
(§1) The dilution series of the compounds is prepared from stock solutions at 20 mM in 100% DMSO. […]
Assaying of the FAAH activity is carried out in a 96-well microplate in a final reaction volume of 70 μl. […] After stirring for 10 minutes, the microplate is centrifuged for 15 minutes at 4000 g and a 30 μl aliquot of the aqueous phase containing the [^3H]ethanolamine produced is removed and then counted for 5 minutes by liquid scintillation (Wallac 1450 Microbeta).

The target in data set [2] is T2, MGL (monoacyl glycerol lipase) enzyme (Mus musculus, UniProt O35678).
T2 construct: the source of MGL enzyme is a mouse brain homogenate from which the cerebellum and the medulla oblongata have been removed; from tissue; host or cells: mouse brain homogenate (cerebellum and medulla oblongata removed)
T2 sequence (O35678 1-303): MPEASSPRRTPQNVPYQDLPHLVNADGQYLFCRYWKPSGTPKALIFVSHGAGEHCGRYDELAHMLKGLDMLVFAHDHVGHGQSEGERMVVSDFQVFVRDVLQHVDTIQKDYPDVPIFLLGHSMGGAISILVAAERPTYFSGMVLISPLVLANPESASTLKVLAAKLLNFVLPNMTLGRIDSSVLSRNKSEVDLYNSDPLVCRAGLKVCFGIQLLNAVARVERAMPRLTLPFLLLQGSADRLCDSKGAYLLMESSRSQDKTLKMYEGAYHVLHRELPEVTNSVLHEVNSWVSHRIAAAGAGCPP
Kind of data set: radioenzymatic assay of [3H] 2-OG hydrolysis by MGL. The format is biochemical. The settings on record: mouse brain homogenate; 20 min preincubation; 50 μM 2-OG; read-out: IC50 (concentration inhibiting 50% of the control enzyme activity of MGL). As for the experimental part:
Tests comprised measuring the activity, in vitro, of the compounds of the invention on the MGL enzyme.
The inhibitory activity was measured in a radioenzymatic assay based on measuring the product of hydrolysis of 2-oleoyl glycerol ([^3H] 2-OG) by MGL. The products of hydrolysis of [^3H] 2-OG, labeled on the glycerol, are oleic acid and [^3H]glycerol, and the source of MGL enzyme is a mouse brain homogenate from which the cerebellum and the medulla oblongata have been removed. The mouse brains are removed, and stored at −80° C. until they are used or homogenized immediately for twice 5 seconds using a Precellys apparatus at 5000 rpm (Bertin) in a 10 mM Tris-HCl, 150 mM NaCl, 1 mM EDTA buffer (pH 8) at 4° C. The concentration of the homogenates is then adjusted to 7.5 μg/μl.
as §1
Assaying of the MGL activity is carried out in a 96-well microplate in a final reaction volume of 100 μl. […] After stirring for 10 minutes, the microplate is centrifuged for 15 minutes at 4000 g and a 30 μl aliquot of the aqueous phase containing the [^3H]glycerol produced is removed and then counted for 5 minutes by liquid scintillation (Wallac 1450 Microbeta). […]

`COc1ccc(N2CCN(C(=O)n3nnc4ccc(N5CCCC5)nc43)CC2)cc1` [Compound No. 2, [4-(4-Methoxyphenyl)piperazin-1-yl](5-pyrrolidin-1-yl[1,2,3]triazolo[4,5-b]-pyridin-3-yl)methanone] had a melting point of 138 to 140 °C. On to `O=C(N1CCN(c2cccc(C(F)(F)F)c2)CC1)n1nnc2ccc(N3CCOCC3)nc21` [compound 1, (5-morpholin-4-yl[1,2,3]triazolo[4,5-b]pyridin-3-yl)[4-(3-trifluoromethylphenyl)piperazin-1-yl]methanone], for which the melting point was in the range of 172 to 174 °C. The IC50 in data set [1] amounted to 10 nM. Also, the IC50 in data set [2] worked out at 4 nM. `O=C(N1CCN(c2cccc(C(F)(F)F)c2)CC1)n1nnc2ccc(N3CCCC3)nc21` [compound 3, (5-pyrrolidin-1-yl[1,2,3]triazolo[4,5-b]pyridin-3-yl)[4-(3-trifluoromethylphenyl)piperazin-1-yl]methanone]: the melting point fell in the range of 158 to 160 °C. Same read-out and setting: with `O=C(N1CCN(c2ccc(C(F)(F)F)cc2)CC1)n1nnc2ccc(N3CCC(F)(F)C3)nc21` [compound 4, [5-(3,3-difluoropyrrolidin-1-yl)[1,2,3]triazolo[4,5-b]pyridin-3-yl)[4-(4-trifluoromethylphenyl)piperazin-1-yl]methanone] the figure was 141 to 143 °C.

A word on the melting point: it is the temperature of the solid-liquid transition.
